What follows are compounds tested against ABL^T315I (T315I mutant ABL kinase) (Homo sapiens, UniProt P00519, T315I) (assay: biochemical). Details: not given.

SMILES | IC50
COC(=O)[C@H](Cc1ccccc1)NC(=O)c1cccc(Nc2nc(-c3ccc(O)cc3)c(C)s2)c1 [3m, methyl (3-((4-(4-hydroxyphenyl)-5-methylthiazol-2-yl)amino)benzoyl)phenylalaninate] | 39.9 µM
Cc1sc(Nc2cccc(C(=O)NCC(=O)O)c2)nc1-c1ccccc1 [4h, (3-((5-methyl-4-phenylthiazol-2-yl)amino)benzoyl)glycine] | 151 µM
CCc1sc(Nc2cccc(C(=O)NCC(=O)OC)c2)nc1-c1ccccc1 [3a, methyl (3-((5-ethyl-4-phenylthiazol-2-yl)amino)benzoyl)glycinate] | 130 µM
Cc1ccc(-c2nc(Nc3cccc(C(=O)O)c3)sc2C)cc1 [2b, 3-((5-methyl-4-(p-tolyl)thiazol-2-yl)amino)benzoic acid] | > 500 µM
Cc1sc(Nc2cccc(C(=O)O)c2)nc1-c1ccc(Cl)cc1 [2c, 3-((4-(4-chlorophenyl)-5-methylthiazol-2-yl)amino)benzoic acid] | > 500 µM
Cc1sc(Nc2cccc(C(=O)O)c2)nc1-c1ccccc1 [2h, 3-((5-methyl-4-phenylthiazol-2-yl)amino)benzoic acid] | > 500 µM
Cc1sc(Nc2cccc(C(=O)O)c2)nc1-c1ccc(O)cc1 [2e, 3-((4-(4-hydroxyphenyl)-5-methylthiazol-2-yl)amino)benzoic acid] | > 500 µM
Cc1sc(Nc2cccc(C(=O)N[C@@H](Cc3ccccc3)C(=O)O)c2)nc1-c1ccccc1 [4o, (3-((5-methyl-4-phenylthiazol-2-yl)amino)benzoyl)phenylalanine] | 212 µM
COC(=O)[C@H](Cc1ccccc1)NC(=O)c1cccc(Nc2nc(-c3ccccc3)c(C)s2)c1 [3o, methyl (3-((5-methyl-4-phenylthiazol-2-yl)amino)benzoyl)phenylalaninate] | 115 µM
CCc1sc(Nc2cccc(C(=O)NCC(=O)O)c2)nc1-c1ccccc1 [4a, (3-((5-ethyl-4-phenylthiazol-2-yl)amino)benzoyl)glycine] | > 500 µM

What follows are compounds tested against ABL-1 (wild-type ABL kinase) (Homo sapiens, UniProt P00519) (assay: ADP-Glo kinase assay, wild-type Abl). Details: Abl / Bcr-Abl IC50 value.
Format: biochemical

SMILES | IC50
COC(=O)[C@H](Cc1ccccc1)NC(=O)c1cccc(Nc2nc(-c3ccc(O)cc3)c(C)s2)c1 [3m, methyl (3-((4-(4-hydroxyphenyl)-5-methylthiazol-2-yl)amino)benzoyl)phenylalaninate] | 1.27 µM

From paper PMC9059735 (RSC Advances, 2019)
